Test results reported in ChEMBL document CHEMBL4825714, “Hinge Binder Scaffold Hopping Identifies Potent Calcium/Calmodulin-Dependent Protein Kinase Kinase 2 (CAMKK2) Inhibitor Chemotypes” (J Med Chem, 2021).
In brackets after ≈: the same amount, converted by molar mass.

Assay: Solubility of the compound
Format: physicochemical

Row | Compound | solubility [µg/mL]
1 | O=C(O)c1ccc(-c2ccncn2)cc1C1CCCC1 | 19.4 (≈ 72.3 µM)
2 | O=C(O)c1ccc(-c2ncnc3sccc23)cc1C1CCCC1 | 62.6 (≈ 193 µM)
3 | O=C(O)c1ccc(-c2ccnc(Nc3ccccc3)n2)cc1C1CCCC1 | 10.6 (≈ 29.5 µM)
4 | O=C(O)c1ccc(-c2cnn3ccc(-c4ccccc4)cc23)cc1C1CCCC1 | 42 (≈ 110 µM)
5 | O=C(O)c1ccc(-c2ccnc3ccc(-c4ccccc4)cc23)cc1C1CCCC1 | 38 (≈ 96.6 µM)
6 | O=C(O)c1ccc(-c2c[nH]c3ncc(-c4ccccc4)cc23)cc1C1CCCC1 [GSK-650394] | 2 (≈ 5.23 µM)
7 | O=C(O)c1ccc(-c2csc3ncc(-c4ccccc4)cc23)cc1C1CCCC1 | 1.5 (≈ 3.75 µM)
8 | Cn1ccc2c(-c3ccc(C(=O)O)c(C4CCCC4)c3)ccnc21 | 40 (≈ 125 µM)
9 | O=C(O)c1ccc(-c2ncnc3ccc(-c4ccccc4)cc23)cc1C1CCCC1 | 70.4 (≈ 178 µM)
10 | O=C(O)c1ccc(-c2ccnc3ccccc23)cc1C1CCCC1 | 64.4 (≈ 203 µM)
